Results published in the supplement of paper PMC11451515.

System: SEM cells
Experiment: cell viability relative to DMSO control; higher = less cytotoxic
Conditions: 48 h
How it was run: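 Library compounds in DMSO were pin-dosed into 1536-well plates (5 μl) holding NOMO1 or SEM (500 cells/well) or P12-Ichikawa (1000 cells/well) leukemia cells, across an 11-point threefold series of 47 μM to 0.79 nM. Each cell line had been adapted for at least four passages in each medium. CellTiter-Glo One luminescence was read after 48 h at 37°C. Viability is the per-plate percentage relative to DMSO wells, with cell-free wells as background.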

[1] = HPLM + 10% dialyzed FBS, 0.000781 µM
[2] = HPLM + 10% dialyzed FBS, 0.00234 µM
[3] = HPLM + 10% dialyzed FBS, 0.00702 µM
[4] = HPLM + 10% dialyzed FBS, 0.0211 µM
[5] = HPLM + 10% dialyzed FBS, 0.0632 µM
[6] = HPLM + 10% dialyzed FBS, 0.19 µM
[7] = HPLM + 10% dialyzed FBS, 0.569 µM
[8] = HPLM + 10% dialyzed FBS, 1.71 µM
[9] = HPLM + 10% dialyzed FBS, 5.12 µM
[10] = HPLM + 10% dialyzed FBS, 15.4 µM
[11] = HPLM + 10% dialyzed FBS, 46.1 µM
[12] = RPMI 5 mM glucose + 10% FBS, 0.000781 µM
[13] = RPMI 5 mM glucose + 10% FBS, 0.00234 µM
[14] = RPMI 5 mM glucose + 10% FBS, 0.00702 µM
[15] = RPMI 5 mM glucose + 10% FBS, 0.0211 µM
[16] = RPMI 5 mM glucose + 10% FBS, 0.0632 µM
[17] = RPMI 5 mM glucose + 10% FBS, 0.19 µM
[18] = RPMI 5 mM glucose + 10% FBS, 0.569 µM
[19] = RPMI 5 mM glucose + 10% FBS, 1.71 µM
[20] = RPMI 5 mM glucose + 10% FBS, 5.12 µM
[21] = RPMI 5 mM glucose + 10% FBS, 15.4 µM
[22] = RPMI 5 mM glucose + 10% FBS, 46.1 µM
[23] = RPMI 5 mM glucose + 10% dialyzed FBS, 0.000781 µM
[24] = RPMI 5 mM glucose + 10% dialyzed FBS, 0.00234 µM
[25] = RPMI 5 mM glucose + 10% dialyzed FBS, 0.00702 µM
[26] = RPMI 5 mM glucose + 10% dialyzed FBS, 0.0211 µM
[27] = RPMI 5 mM glucose + 10% dialyzed FBS, 0.0632 µM
[28] = RPMI 5 mM glucose + 10% dialyzed FBS, 0.19 µM
[29] = RPMI 5 mM glucose + 10% dialyzed FBS, 0.569 µM
[30] = RPMI 5 mM glucose + 10% dialyzed FBS, 1.71 µM
[31] = RPMI 5 mM glucose + 10% dialyzed FBS, 5.12 µM
[32] = RPMI 5 mM glucose + 10% dialyzed FBS, 15.4 µM
[33] = RPMI 5 mM glucose + 10% dialyzed FBS, 46.1 µM

SMILES | cell viability [1] [%] | cell viability [2] [%] | cell viability [3] [%] | cell viability [4] [%] | cell viability [5] [%] | cell viability [6] [%] | cell viability [7] [%] | cell viability [8] [%] | cell viability [9] [%] | cell viability [10] [%] | cell viability [11] [%] | cell viability [12] [%] | cell viability [13] [%] | cell viability [14] [%] | cell viability [15] [%] | cell viability [16] [%] | cell viability [17] [%] | cell viability [18] [%] | cell viability [19] [%] | cell viability [20] [%] | cell viability [21] [%] | cell viability [22] [%] | cell viability [23] [%] | cell viability [24] [%] | cell viability [25] [%] | cell viability [26] [%] | cell viability [27] [%] | cell viability [28] [%] | cell viability [29] [%] | cell viability [30] [%] | cell viability [31] [%] | cell viability [32] [%] | cell viability [33] [%]
Nc1ccccc1NC(=O)c1ccc(CNc2nccc(-c3cccnc3)n2)cc1 | 98.4 | 101 | 117 | 109 | 119 | 110 | 73.1 | 25.5 | 8.57 | 6.62 | 7.25 | 89.7 | 94.4 | 91.6 | 97.6 | 105 | 105 | 69.4 | 21.8 | 7.2 | 6.22 | 6.49 | 92.7 | 111 | 106 | 106 | 117 | 105 | 62.8 | 17.5 | 7.07 | 6.52 | 7.92
Cc1ccc(NC(=O)C2(c3ccc4c(c3)OC(F)(F)O4)CC2)nc1-c1cccc(C(=O)O)c1 | 106 | 87.4 | 109 | 111 | 93.5 | 13.7 | 16.4 | 16.7 | 9.88 | 9.04 | 6.17 | 87.2 | 86.6 | 91.6 | 91.5 | 62.6 | 11.1 | 10.5 | 10.5 | 8.17 | 7.53 | 5.47 | 97.9 | 98.3 | 97.7 | 107 | 71.9 | 14.9 | 13.2 | 16.6 | 9.71 | 8.66 | 6.45
O=C1c2c(O)cccc2[C@H]([C@@H]2O[C@H](CO)[C@@H](O)[C@H](O)[C@H]2O)c2cc(CO)cc(O)c21 | 99.7 | 39 | 110 | 105 | 112 | 111 | 116 | 108 | 112 | 116 | 108 | 89.4 | 30.7 | 92.8 | 84 | 98.2 | 96.3 | 106 | 91.3 | 93 | 93.5 | 106 | 94 | 27.4 | 92.4 | 96.7 | 102 | 101 | 114 | 109 | 112 | 90.1 | 119
NC(=O)c1ccc(-c2nc(-c3ccc4c(c3)OCCO4)c(-c3ccccn3)[nH]2)cc1 | 116 | 124 | 109 | 119 | 120 | 136 | 135 | 132 | 143 | 130 | 126 | 100 | 112 | 96.3 | 114 | 105 | 111 | 102 | 110 | 119 | 112 | 108 | 119 | 126 | 111 | 137 | 121 | 118 | 124 | 131 | 122 | 138 | 146
COc1cc(N2CCC(C(N)=O)CC2)ccc1Nc1nc(N)c(Cl)c(Nc2ccccc2[S+](=O)([O-])C(C)C)n1 | 81.4 | 83.3 | 87.8 | 96.1 | 82.2 | 104 | 97.6 | 84.1 | 66.5 | 13.3 | 3.39 | 103 | 109 | 107 | 104 | 97.6 | 108 | 120 | 92.9 | 43 | 6.28 | 3.46 | 74.8 | 85.1 | 94.3 | 76.9 | 88.5 | 88.8 | 99.4 | 86 | 69 | 13.2 | 2.73
CC[C@H]1OC(=O)[C@H](C)[C@@H](O[C@H]2C[C@@](C)(OC)[C@@H](O)[C@H](C)O2)[C@H](C)[C@@H](O[C@@H]2O[C@@H](C)C[C@H](N(C)C)[C@H]2O)[C@](C)(O)C[C@@H](C)C(=O)[C@H](C)[C@@H](O)[C@]1(C)O | 79.6 | 80.8 | 87.8 | 95.4 | 80.6 | 85.6 | 105 | 81.4 | 89.8 | 82.3 | 32.2 | 83 | 94.3 | 101 | 102 | 90 | 105 | 106 | 106 | 94.8 | 35 | 18.7 | 79.5 | 84.9 | 84.7 | 96.9 | 89.4 | 94.5 | 92.2 | 86.8 | 80.6 | 80.7 | 24.5
O=C(O)c1ccc2cc(-c3ccc(O)c(C45CC6CC(CC(C6)C4)C5)c3)ccc2c1 | – | – | – | – | – | – | – | – | – | – | – | 120 | 129 | 114 | 118 | 118 | 93.1 | 41.7 | 19.8 | 10.5 | 9.46 | 8.21 | – | – | – | – | – | – | – | – | – | – | –
CNC(=O)[C@H](Cc1ccccc1)NC(=O)[C@H](CC(C)C)[C@H](CSc1cccs1)C(=O)NO | 83 | 82.9 | 90 | 96 | 87.5 | 110 | 100 | 95.7 | 80.4 | 57.7 | 24.5 | 95.9 | 75.4 | 96.3 | 105 | 74.8 | 90.6 | 89.8 | 97.6 | 77.7 | 45.8 | 25.4 | 86.5 | 69.4 | 75.4 | 82.2 | 67.2 | 81.7 | 90.6 | 78.4 | 70.6 | 40.4 | 21.5
COc1cc2c(Nc3ccc(NC(=O)c4ccccc4)cc3)ncnc2cc1OCCCN1CCOCC1 | 105 | 119 | 124 | 140 | 130 | 133 | 123 | 105 | 56.8 | 44.5 | 40.6 | 122 | 127 | 112 | 140 | 136 | 124 | 144 | 122 | 55 | 25.9 | 22.4 | – | – | – | – | – | – | – | – | – | – | –
COc1ccc(Cc2nccc3cc(OC)c(OC)cc23)cc1OC | 105 | 126 | 111 | 131 | 126 | 124 | 127 | 128 | 134 | 121 | 88 | 110 | 125 | 117 | 120 | 131 | 130 | 118 | 109 | 123 | 110 | 53.9 | 109 | 107 | 110 | 110 | 99.5 | 109 | 105 | 118 | 94 | 111 | 54.3
C[C@@H]1C[C@H]2[C@@H]3\C=C(C)/C4=C/C5=C(C[C@]4(C)[C@H]3[C@@H](O)C[C@]2(C)[C@@]1(O)C(=O)COC(C)=O)C=N[N]5C6=CC=CC=C6 | 134 | 120 | 111 | 104 | 85.4 | 67.8 | 66.4 | 56.8 | 59.7 | 59.9 | 58.8 | – | – | – | – | – | – | – | – | – | – | – | 143 | 117 | 116 | 97.7 | 75 | 63.1 | 52.8 | 54.9 | 46.1 | 43.3 | 35.5
FC(F)(F)c1ccc(Nc2nc3cc(Oc4ccnc(-c5ncc(C(F)(F)F)[nH]5)c4)ccc3[nH]2)cc1 | 108 | 97.7 | 112 | 116 | 121 | 117 | 118 | 121 | 106 | 82.7 | 18.4 | 120 | 114 | 117 | 113 | 125 | 117 | 100 | 120 | 114 | 80.8 | 4.03 | – | – | – | – | – | – | – | – | – | – | –
Cc1ccc(-n2nc(C(C)(C)C)cc2NC(=O)Nc2ccc(OCCN3CCOCC3)c3ccccc23)cc1 | 78.7 | 94 | 91.9 | 90.8 | 86.7 | 100 | 84 | 86.2 | 82.2 | 63.7 | 61.8 | 96.6 | 115 | 104 | 103 | 87.1 | 87.1 | 84.1 | 80.8 | 83.6 | 64 | 74.8 | 89.9 | 97.9 | 79.6 | 94.1 | 92 | 90 | 83.7 | 84.7 | 84.1 | 51.7 | 58.8
CCC[C@@H]1C[C@@H](C(=O)N[C@@H]([C@H]2O[C@H](SC)[C@H](O)[C@@H](O)[C@H]2O)[C@@H](C)O)N(C)C1.Cl | 125 | 121 | 118 | 109 | 119 | 127 | 114 | 122 | 103 | 117 | 91 | 110 | 114 | 105 | 99.3 | 120 | 110 | 130 | 111 | 111 | 111 | 97.4 | 113 | 119 | 141 | 118 | 136 | 133 | 132 | 137 | 125 | 104 | 116
CC[C@]1(O)C[C@H]2CN(CCC3=C([NH]C4=C3C=CC=C4)[C@@](C2)(C(=O)OC)C5=CC6=C(C=C5OC)N(C=O)[C@H]7[C@](O)([C@H](OC(C)=O)[C@]8(CC)\C=C/C[N@@]9CC[C@]67[C@H]89)C(=O)OC)C1 | 114 | 104 | 95.2 | 84 | 36.5 | 24.7 | 20.7 | 23.2 | 16.4 | 10.7 | 7.67 | 70.8 | 70.8 | 67 | 39.6 | 13.4 | 11 | 12 | 8.09 | 4.93 | 3.51 | 2.93 | 99.8 | 108 | 106 | 90.3 | 46.3 | 18 | 16.2 | 18.1 | 11.5 | 6.29 | 5.26
Cc1[nH]c(/C=C2\C(=O)Nc3ccc([S+](=O)([O-])N(C)c4cccc(Cl)c4)cc32)c(C)c1C(=O)N1CCN(C)CC1 | 101 | 120 | 113 | 125 | 129 | 108 | 114 | 98.3 | 71.5 | 38.6 | 2.39 | 98.4 | 111 | 118 | 107 | 96.9 | 82 | 106 | 86.5 | 54.3 | 31.3 | 1.69 | – | – | – | – | – | – | – | – | – | – | –
